Reference: the NIST ThermoML archive (doi:10.1021/je300280s)
Where “and” joins values, the source holds several entries; their conditions need not be identical. Equal values may be shown once. ± gives the expanded uncertainty stated by the source.

Experiment: xn = mol fraction of the nth substance listed
Conditions: 101.3 kPa, Liquid, Vibrating tube method

`CCCOC(C)=O` [propyl ethanoate] + O showed a mass density (288.15 K, x1 = 0.001246) of 998.986 ± 0.033 kg/m3, a mass density (288.15 K, x1 = 0.001248) of 998.988 ± 0.033 kg/m3 and a mass density (288.15 K, x1 = 0.001558) of 998.959 ± 0.033 kg/m3. It also gave a mass density (288.15 K, x1 = 0.00156) of 998.962 ± 0.033 kg/m3, a mass density (288.15 K, x1 = 0.001869) of 998.934 ± 0.033 kg/m3 and a mass density (288.15 K, x1 = 0.001871) of 998.936 ± 0.033 kg/m3. For the same molecule, the mass density (288.15 K, x1 = 0.00218) was 998.909 ± 0.033 kg/m3, the mass density (288.15 K, x1 = 0.002182) was 998.906 ± 0.033 kg/m3 and the mass density (288.15 K, x1 = 0.002491) was 998.876 ± 0.033 kg/m3. It also gave a mass density (288.15 K, x1 = 0.002494) of 998.882 ± 0.033 kg/m3, a mass density (298.15 K, x1 = 0.000935) of 996.903 ± 0.1 kg/m3 and a mass density (298.15 K, x1 = 0.000936) of 996.9 ± 0.034 kg/m3. For the same molecule, the mass density (298.15 K, x1 = 0.000937) was 996.898 ± 0.1 kg/m3, the mass density (298.15 K, x1 = 0.001247) was 996.856 ± 0.13 kg/m3 and the mass density (298.15 K, x1 = 0.001248) was 996.852 ± 0.034 kg/m3. For the same molecule, the mass density (298.15 K, x1 = 0.001249) was 996.848 ± 0.13 kg/m3, the mass density (298.15 K, x1 = 0.001558) was 996.807 ± 0.17 kg/m3 and the mass density (298.15 K, x1 = 0.00156) was 996.803 ± 0.17 kg/m3 and 996.805 ± 0.17 kg/m3. It also gave a mass density (298.15 K, x1 = 0.001869) of 996.762 ± 0.16 kg/m3, a mass density (298.15 K, x1 = 0.001871) of 996.758 ± 0.2 kg/m3 and a mass density (298.15 K, x1 = 0.001872) of 996.748 ± 0.035 kg/m3. The mass density (298.15 K, x1 = 0.002181) was 996.714 ± 0.22 kg/m3, the mass density (298.15 K, x1 = 0.002183) was 996.703 ± 0.22 kg/m3 and 996.709 ± 0.23 kg/m3 and the mass density (298.15 K, x1 = 0.002492) was 996.669 ± 0.27 kg/m3. The mass density (298.15 K, x1 = 0.002494) was 996.669 ± 0.034 kg/m3, the mass density (298.15 K, x1 = 0.002495) was 996.655 ± 0.12 kg/m3 and the mass density (308.15 K, x1 = 0.000936) was 993.831 ± 0.037 kg/m3 and 993.832 ± 0.037 kg/m3. The mass density (308.15 K, x1 = 0.001247) was 993.761 ± 0.037 kg/m3, the mass density (308.15 K, x1 = 0.001559) was 993.691 ± 0.037 kg/m3 and 993.692 ± 0.037 kg/m3 and the mass density (308.15 K, x1 = 0.00187) was 993.628 ± 0.037 kg/m3 and 993.621 ± 0.037 kg/m3. For the same molecule, the mass density (308.15 K, x1 = 0.002181) was 993.559 ± 0.037 kg/m3 and 993.557 ± 0.037 kg/m3, the mass density (308.15 K, x1 = 0.002492) was 993.5 ± 0.037 kg/m3 and 993.503 ± 0.037 kg/m3 and the mass density (318.15 K, x1 = 0.000936) was 989.957 ± 0.039 kg/m3. The mass density (318.15 K, x1 = 0.000937) was 989.951 ± 0.039 kg/m3, the mass density (318.15 K, x1 = 0.001247) was 989.872 ± 0.039 kg/m3 and the mass density (318.15 K, x1 = 0.001248) was 989.86 ± 0.039 kg/m3. The mass density (318.15 K, x1 = 0.001559) was 989.782 ± 0.04 kg/m3, the mass density (318.15 K, x1 = 0.001561) was 989.779 ± 0.04 kg/m3 and the mass density (318.15 K, x1 = 0.00187) was 989.693 ± 0.04 kg/m3. It also gave a mass density (318.15 K, x1 = 0.001873) of 989.698 ± 0.04 kg/m3, a mass density (318.15 K, x1 = 0.002182) of 989.605 ± 0.04 kg/m3 and a mass density (318.15 K, x1 = 0.002184) of 989.612 ± 0.04 kg/m3. It also gave a mass density (318.15 K, x1 = 0.002493) of 989.536 ± 0.04 kg/m3 and a mass density (318.15 K, x1 = 0.002496) of 989.532 ± 0.04 kg/m3.
